Experimental data taken from article PMC3513391 (Biochemistry, 2012).

Experiments:
[1] = molecular target: T1, Homoprotocatechuate 2,3-dioxygenase (FeHPCD), Y257F variant (Brevibacterium fuscum, UniProt Q45135, Y257F); assay: UV-vis spectral change on anaerobic binding
[2] = molecular target: T1, Homoprotocatechuate 2,3-dioxygenase (FeHPCD), Y257F variant; assay: competition with 4NC by UV-vis; type: binding
[3] = molecular target: Homoprotocatechuate 2,3-dioxygenase (FeHPCD) (Brevibacterium fuscum, UniProt Q45135); assay: competition with 4NC by UV-vis; type: binding

SMILES | Kd [1] [µM] | Kd [2] [µM] | Kd [3] [µM]
O=[N+]([O-])c1ccc(O)c(O)c1 [4NC, 4-nitrocatechol] | ~5 |  | 
O=C(O)Cc1ccc(O)c(O)c1 [HPCA, homoprotocatechuate] |  | < 5 | < 5
